Laboratory results: ChEMBL document CHEMBL3885881, “DrugMatrix”

Organism: Rattus norvegicus
Assay: DrugMatrix - Regimen: Daily Repeat
Type: toxicity, organism-based, Sprague-Dawley
Parameters: regimen Daily Repeat, gender Male, age 6-8 weeks
Conditions: in vivo, po, route oral GAVAGE, […]; for ABSOLUTE BASOPHIL / ABSOLUTE EOSINOPHIL / ABSOLUTE LYMPHOCYTE / ABSOLUTE MONOCYTE / ABSOLUTE SEGMENTED NEUTROPHIL / BASOPHIL / EOSINOPHIL / ERYTHROCYTE COUNT / HEMATOCRIT / HEMOGLOBIN / LEUKOCYTE COUNT / LYMPHOCYTE / MEAN CORPUSCULAR HEMOGLOBIN / MEAN CORPUSCULAR HEMOGLOBIN CONCENTRATION / MEAN CORPUSCULAR VOLUME / MONOCYTE / NEUTROPHIL / NUCLEATED RED BLOOD CELLS / PLATELET COUNT: tissue Blood; for ALANINE AMINOTRANSFERASE / ALKALINE PHOSPHATASE / ASPARTATE AMINOTRANSFERASE / BLOOD UREA NITROGEN / CARBON DIOXIDE / CHLORIDE / CHOLESTEROL / CREATINE PHOSPHOKINASE / CREATININE / GLUCOSE / LACTATE DEHYDROGENASE / LIPASE / PHOSPHORUS / POTASSIUM / SODIUM / TOTAL BILIRUBIN / TOTAL PROTEIN / URIC ACID: tissue Plasma
[1] = 20.4 mg/kg, 72 h, dose level High, time 3 day
[2] = 20.4 mg/kg, 120 h, dose level High, time 5 day
[3] = 72 h, dose 2.7 mg/Kg, dose level Low, time 3 day
[4] = 120 h, dose 2.7 mg/Kg, dose level Low, time 5 day

## CC(C(=O)O)c1cccc(C(=O)c2ccccc2)c1 (stereo not drawn) [KETOPROFEN]
[1]
  ABSOLUTE BASOPHIL: 0 CELLS/uL
  ABSOLUTE EOSINOPHIL: 0 CELLS/uL
  ABSOLUTE LYMPHOCYTE: 7267.67 CELLS/uL
  ABSOLUTE MONOCYTE: 314.33 CELLS/uL
  ABSOLUTE SEGMENTED NEUTROPHIL: 1618 CELLS/uL
  BASOPHIL: 0%
  EOSINOPHIL: 0%
  ERYTHROCYTE COUNT: 4.75 x10E6/uL
  HEMATOCRIT: 28.6%
  HEMOGLOBIN: 11.67 G/DL
  LEUKOCYTE COUNT: 9.2 x10E3/uL
  LYMPHOCYTE: 76.67%
  MEAN CORPUSCULAR HEMOGLOBIN: 24.67 pg
  MEAN CORPUSCULAR HEMOGLOBIN CONCENTRATION: 40.8 G/DL
  MEAN CORPUSCULAR VOLUME: 60.43 fL
  MONOCYTE: 3.33%
  NEUTROPHIL: 20%
  NUCLEATED RED BLOOD CELLS: 0.67 /100WBC
  PLATELET COUNT: 1067.67 x10E3/uL
  ALANINE AMINOTRANSFERASE: 31.67 u/L
  ALKALINE PHOSPHATASE: 297.33 u/L
  ASPARTATE AMINOTRANSFERASE: 95 u/L
  BLOOD UREA NITROGEN: 15.33 mg/dL
  CARBON DIOXIDE: 25.67 mmol/L
  CHLORIDE: 101.67 MEQ/L
  CHOLESTEROL: 70.33 mg/dL
  CREATINE PHOSPHOKINASE: 362.33 u/L
  CREATININE: 0.15 mg/dL
  GLUCOSE: 138.67 mg/dL
  LACTATE DEHYDROGENASE: 114 u/L
  LIPASE: 9.67 u/L
  PHOSPHORUS: 13.07 mg/dL
  POTASSIUM: 6.63 MEQ/L
  SODIUM: 141.23 MEQ/L
  TOTAL BILIRUBIN: 0.1 mg/dL
  TOTAL PROTEIN: 4.57 G/DL
  URIC ACID: 2.1 mg/dL
[2]
  ABSOLUTE BASOPHIL: 0 CELLS/uL
  ABSOLUTE EOSINOPHIL: 0 CELLS/uL
  ABSOLUTE LYMPHOCYTE: 10025.5 CELLS/uL
  ABSOLUTE MONOCYTE: 600.5 CELLS/uL
  ABSOLUTE SEGMENTED NEUTROPHIL: 1824 CELLS/uL
  BASOPHIL: 0%
  EOSINOPHIL: 0%
  ERYTHROCYTE COUNT: 4.91 x10E6/uL
  HEMATOCRIT: 29.7%
  HEMOGLOBIN: 12.2 G/DL
  LEUKOCYTE COUNT: 12.45 x10E3/uL
  LYMPHOCYTE: 76%
  MEAN CORPUSCULAR HEMOGLOBIN: 25 pg
  MEAN CORPUSCULAR HEMOGLOBIN CONCENTRATION: 41.05 G/DL
  MEAN CORPUSCULAR VOLUME: 60.85 fL
  MONOCYTE: 4.5%
  NEUTROPHIL: 19.5%
  NUCLEATED RED BLOOD CELLS: 1 /100WBC
  PLATELET COUNT: 1944 x10E3/uL
  ALANINE AMINOTRANSFERASE: 58 u/L
  ALKALINE PHOSPHATASE: 430 u/L
  ASPARTATE AMINOTRANSFERASE: 128 u/L
  BLOOD UREA NITROGEN: 17 mg/dL
  CARBON DIOXIDE: 21 mmol/L
  CHLORIDE: 99.5 MEQ/L
  CHOLESTEROL: 61.5 mg/dL
  CREATINE PHOSPHOKINASE: 682 u/L
  CREATININE: 0.13 mg/dL
  GLUCOSE: 127.5 mg/dL
  LACTATE DEHYDROGENASE: 391.5 u/L
  LIPASE: 20.5 u/L
  PHOSPHORUS: 14.15 mg/dL
  POTASSIUM: 8.29 MEQ/L
  SODIUM: 138.9 MEQ/L
  TOTAL BILIRUBIN: 0.15 mg/dL
  TOTAL PROTEIN: 5.05 G/DL
  URIC ACID: 3.2 mg/dL
[3]
  ABSOLUTE BASOPHIL: 0 CELLS/uL
  ABSOLUTE EOSINOPHIL: 0 CELLS/uL
  ABSOLUTE LYMPHOCYTE: 15950 CELLS/uL
  ABSOLUTE MONOCYTE: 68.67 CELLS/uL
  ABSOLUTE SEGMENTED NEUTROPHIL: 1814.67 CELLS/uL
  BASOPHIL: 0%
  EOSINOPHIL: 0%
  ERYTHROCYTE COUNT: 5.46 x10E6/uL
  HEMATOCRIT: 34.7%
  HEMOGLOBIN: 13.87 G/DL
  LEUKOCYTE COUNT: 17.83 x10E3/uL
  LYMPHOCYTE: 89.67%
  MEAN CORPUSCULAR HEMOGLOBIN: 25.4 pg
  MEAN CORPUSCULAR HEMOGLOBIN CONCENTRATION: 39.97 G/DL
  MEAN CORPUSCULAR VOLUME: 63.5 fL
  MONOCYTE: 0.33%
  NEUTROPHIL: 10%
  NUCLEATED RED BLOOD CELLS: 0.67 /100WBC
  PLATELET COUNT: 1051 x10E3/uL
  ALANINE AMINOTRANSFERASE: 83.33 u/L
  ALKALINE PHOSPHATASE: 375.67 u/L
  ASPARTATE AMINOTRANSFERASE: 100.33 u/L
  BLOOD UREA NITROGEN: 10.33 mg/dL
  CARBON DIOXIDE: 28.67 mmol/L
  CHLORIDE: 99.67 MEQ/L
  CHOLESTEROL: 74 mg/dL
  CREATINE PHOSPHOKINASE: 203.67 u/L
  CREATININE: 0.12 mg/dL
  GLUCOSE: 169 mg/dL
  LACTATE DEHYDROGENASE: 131.33 u/L
  LIPASE: 12 u/L
  PHOSPHORUS: 11.9 mg/dL
  POTASSIUM: 6.6 MEQ/L
  SODIUM: 141.63 MEQ/L
  TOTAL BILIRUBIN: 0.2 mg/dL
  TOTAL PROTEIN: 5.5 G/DL
  URIC ACID: 1.3 mg/dL
[4]
  ABSOLUTE BASOPHIL: 0 CELLS/uL
  ABSOLUTE EOSINOPHIL: 0 CELLS/uL
  ABSOLUTE LYMPHOCYTE: 13468.33 CELLS/uL
  ABSOLUTE MONOCYTE: 227.67 CELLS/uL
  ABSOLUTE SEGMENTED NEUTROPHIL: 2570.67 CELLS/uL
  BASOPHIL: 0%
  EOSINOPHIL: 0%
  ERYTHROCYTE COUNT: 5.73 x10E6/uL
  HEMATOCRIT: 35.13%
  HEMOGLOBIN: 14.03 G/DL
  LEUKOCYTE COUNT: 16.27 x10E3/uL
  LYMPHOCYTE: 83%
  MEAN CORPUSCULAR HEMOGLOBIN: 24.5 pg
  MEAN CORPUSCULAR HEMOGLOBIN CONCENTRATION: 39.97 G/DL
  MEAN CORPUSCULAR VOLUME: 61.33 fL
  MONOCYTE: 1.33%
  NEUTROPHIL: 15.67%
  NUCLEATED RED BLOOD CELLS: 0 /100WBC
  PLATELET COUNT: 1235.67 x10E3/uL
  ALANINE AMINOTRANSFERASE: 64.67 u/L
  ALKALINE PHOSPHATASE: 363.67 u/L
  ASPARTATE AMINOTRANSFERASE: 74 u/L
  BLOOD UREA NITROGEN: 13.67 mg/dL
  CARBON DIOXIDE: 31.67 mmol/L
  CHLORIDE: 100.67 MEQ/L
  CHOLESTEROL: 64.33 mg/dL
  CREATINE PHOSPHOKINASE: 125.67 u/L
  CREATININE: 0.17 mg/dL
  GLUCOSE: 146.67 mg/dL
  LACTATE DEHYDROGENASE: 78 u/L
  LIPASE: 11.67 u/L
  PHOSPHORUS: 9.8 mg/dL
  POTASSIUM: 6.54 MEQ/L
  SODIUM: 143.77 MEQ/L
  TOTAL BILIRUBIN: 0.13 mg/dL
  TOTAL PROTEIN: 5.8 G/DL
  URIC ACID: 1.17 mg/dL
